Assay results: patent publication US10787436B2, “Inhibitors of cyclin-dependent kinase 7 (CDK7)” (Dana-Farber Cancer Institute, Inc., priority 2012, dated 2020)
Read-outs that look alike come from different tables or passages of the source.

Columns and labels:
[1] = target: CDK8/cyclin C (Homo sapiens (Human), UniProt P49336); experiment: Life Technologies LanthaScreen Eu kinase assay, CDK8; assay type: binding; conditions: read-out: Calculated IC50, CDK8/cyclin C
[2] = target: IRAK1 (Homo sapiens (Human), UniProt P51617); experiment: Life Technologies Adapta kinase assay, IRAK1; assay type: biochemical; conditions: read-out: Calculated IC50, IRAK1
Sequence of IRAK1 (P51617 whole entry): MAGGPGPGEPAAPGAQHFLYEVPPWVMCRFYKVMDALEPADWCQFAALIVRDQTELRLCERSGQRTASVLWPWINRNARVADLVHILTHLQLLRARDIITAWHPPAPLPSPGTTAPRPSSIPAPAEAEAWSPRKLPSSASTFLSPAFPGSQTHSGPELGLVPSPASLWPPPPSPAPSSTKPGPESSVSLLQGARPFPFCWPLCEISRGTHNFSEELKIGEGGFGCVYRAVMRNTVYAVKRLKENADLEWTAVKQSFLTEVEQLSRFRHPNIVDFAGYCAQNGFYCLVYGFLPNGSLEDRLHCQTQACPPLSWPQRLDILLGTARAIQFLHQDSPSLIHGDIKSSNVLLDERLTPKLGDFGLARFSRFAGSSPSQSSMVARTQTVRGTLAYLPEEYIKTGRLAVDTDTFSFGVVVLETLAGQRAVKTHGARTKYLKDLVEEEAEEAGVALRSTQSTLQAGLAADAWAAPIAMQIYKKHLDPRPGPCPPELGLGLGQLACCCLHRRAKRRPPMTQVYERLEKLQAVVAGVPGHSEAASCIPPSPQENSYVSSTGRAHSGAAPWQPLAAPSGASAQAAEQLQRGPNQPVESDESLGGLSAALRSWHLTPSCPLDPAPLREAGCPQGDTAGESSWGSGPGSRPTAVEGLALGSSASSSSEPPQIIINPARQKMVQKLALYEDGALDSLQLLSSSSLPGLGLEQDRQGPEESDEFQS

[3] = tested on: MV4-11; experiment: Proliferation assay, CellTiter-Glo, 72 hour; assay type: cell-based; conditions: blood cancer cell line, read-out: Inhibition of proliferation, MV4-11
[4] = tested on: hTERT-HME1; experiment: Proliferation assay, CellTiter-Glo, 72 hour; assay type: cell-based; conditions: immortalized normal mammary epithelial cell line, read-out: Inhibition of proliferation, hTERT-HME1
[5] = tested on: MDA-MB231; experiment: Proliferation assay, CellTiter-Glo, 72 hour; assay type: cell-based; conditions: breast cancer cell line, read-out: Inhibition of proliferation, MDA-MB231
[6] = tested on: T47D; experiment: Proliferation assay, CellTiter-Glo, 72 hour; assay type: cell-based; conditions: breast cancer cell line, read-out: Inhibition of proliferation, T47D
[7] = tested on: SKBR3; experiment: Proliferation assay, CellTiter-Glo, 72 hour; assay type: cell-based; conditions: breast cancer cell line, read-out: Inhibition of proliferation, SKBR3
[8] = tested on: Hs822T; experiment: Proliferation assay, CellTiter-Glo, 72 hour; assay type: cell-based; conditions: Ewing's sarcoma cell line, read-out: Inhibition of proliferation, Hs822T
[9] = tested on: SAOS; experiment: Proliferation assay, CellTiter-Glo, 72 hour; assay type: cell-based; conditions: osteosarcoma cell line, read-out: Inhibition of proliferation, SAOS
[10] = tested on: MNNG-HOS Cl#5; experiment: Proliferation assay, CellTiter-Glo, 72 hour; assay type: cell-based; conditions: osteosarcoma cell line, read-out: Inhibition of proliferation, MNNG-HOS Cl#5
[11] = tested on: 143B; experiment: Proliferation assay, CellTiter-Glo, 72 hour; assay type: cell-based; conditions: osteosarcoma cell line, read-out: Inhibition of proliferation, 143B
[12] = target: CDK7 (recombinant CAK complex) (Homo sapiens (Human), UniProt P50613); experiment: In vitro kinase assay with recombinant CAK complex, with and without pre-incubation; assay type: biochemical; conditions: 25 μM ATP, 45 minutes at 30° C.
Sequence of CDK7 (recombinant CAK complex) (P50613 whole entry): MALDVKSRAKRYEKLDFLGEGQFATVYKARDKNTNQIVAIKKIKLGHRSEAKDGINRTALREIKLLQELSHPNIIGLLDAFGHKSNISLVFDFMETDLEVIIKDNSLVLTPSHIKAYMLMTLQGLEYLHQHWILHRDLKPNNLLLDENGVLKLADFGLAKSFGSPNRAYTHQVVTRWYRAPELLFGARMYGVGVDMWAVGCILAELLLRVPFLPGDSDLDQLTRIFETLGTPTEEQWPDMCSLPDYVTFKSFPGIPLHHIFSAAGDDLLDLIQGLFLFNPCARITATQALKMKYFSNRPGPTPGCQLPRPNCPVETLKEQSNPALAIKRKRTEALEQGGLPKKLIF
Sequence of CDK7 (recombinant CAK complex) (P51946 whole entry partner): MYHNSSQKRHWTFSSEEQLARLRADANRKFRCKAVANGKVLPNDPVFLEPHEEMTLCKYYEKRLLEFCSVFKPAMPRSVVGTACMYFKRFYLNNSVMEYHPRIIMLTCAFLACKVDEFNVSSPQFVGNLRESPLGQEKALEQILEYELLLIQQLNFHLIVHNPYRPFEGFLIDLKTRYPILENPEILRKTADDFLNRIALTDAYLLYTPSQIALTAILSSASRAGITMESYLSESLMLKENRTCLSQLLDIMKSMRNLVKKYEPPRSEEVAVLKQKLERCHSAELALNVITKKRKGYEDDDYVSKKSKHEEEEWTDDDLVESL
Sequence of CDK7 (recombinant CAK complex) (P51948 whole entry partner): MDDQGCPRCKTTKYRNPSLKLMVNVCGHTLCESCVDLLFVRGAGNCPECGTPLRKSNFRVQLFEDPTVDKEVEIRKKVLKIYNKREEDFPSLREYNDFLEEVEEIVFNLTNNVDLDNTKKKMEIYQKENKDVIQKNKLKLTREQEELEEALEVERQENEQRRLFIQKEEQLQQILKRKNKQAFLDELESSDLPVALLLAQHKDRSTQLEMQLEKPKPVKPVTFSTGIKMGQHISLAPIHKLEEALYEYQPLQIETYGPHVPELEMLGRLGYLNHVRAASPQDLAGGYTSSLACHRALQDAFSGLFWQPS
Procedure: Cellular lysates were then probed with antibodies recognizing the Ser-2, Ser-5, and Ser-7 CTD phosphoepitopes. […] At each time point cells were lysed, and the cellular lysates were probed using antibodies as described herein. […] Cells were allowed to grow in medium without inhibitor for 0 to 6 hours. At each time point cells were lysed, and the cellular lysates were probed using antibodies as described herein. […] The kinase reaction was then allowed to proceed for 45 minutes at 30° C.
(§1) In vitro kinase assays with immunoprecipitated proteins (or recombinant CAK complexes) were performed as follows. Kinase reactions were performed in 25 μL of final volume of reaction buffer (50 mM Hepes, pH 7.5, 150 mM NaCl, 10 mM MgCl2, 5% glycerol, 25 μM ATP, and 10 μCi of [γ-32P]ATP). Each reaction contained 1 μg of RNAP II. Incubation was at 30° C. for 30-45 min. Reactions were terminated by addition of 5 μL of 5×SDS-PAGE sample buffer and incubated at 95° C. for 5 min. Reactions were analyzed by SDS-PAGE, and the dried gel was exposed to film or PhosphorImager plate.
Covalent kinase inhibitors have several characteristics that functionally differentiate themselves from their reversible counterparts. […] Washout of compound I-23R, following a 4-hour administration led to the recovery of RNAP II CTD phosphorylation within 1 hour (FIG. 2C). […]

[13] = target: FLAG-CDK7 WT (Homo sapiens (Human), UniProt P50613); experiment: In vitro kinase assay of FLAG-CDK7 immunoprecipitated from treated HCT116 cells; assay type: cell-based; conditions: HCT116 cells treated 4 hours, dose-response
Sequence of FLAG-CDK7 WT (P50613 whole entry): as the sequence (P50613 whole entry) above
Sequence of FLAG-CDK7 WT (P51946 whole entry partner): as the sequence (P51946 whole entry partner) above
Sequence of FLAG-CDK7 WT (P51948 whole entry partner): as the sequence (P51948 whole entry partner) above
Procedure: Following the treatment, the cells were washed 2-fold with cold PBS and then lysed in the following lysis buffer: 50 mM TrisHCl pH 8.0, 150 mM NaCl, 1% NP-40, 5 mM EDTA, 1 mM DTT, and protease/phosphatase cocktails. Following clearance, the lysates were treated with compound I-49 for pulldown (or CDK7 antibody for IP) overnight at 4° C. The lysates were then incubated with streptavidin agarose for pulldown (or Protein G Agarose for IP) for an additional 2-3 hours at 4° C. Agarose beads were washed 5 times with a lysis buffer and then boiled in 2X SDS for 10 minutes at 95° C.
as §1
HCT116 cells were generated stably expressing FLAG-CDK7 WT and C312S. […] CDK7 was then immunoprecipitated (IP) from each combination treatment using a FLAG antibody, and washed IPs were subjected to in vitro kinase assays (FIG. 4F). […]

[14] = tested on: panel of >300 diverse cancer cell lines; experiment: Cancer cell line panel profiling, alamarBlue, 72 hours; assay type: cell-based, human
Procedure: At indicated time points, cellular lysates were harvested at the indicated times points and immunoblotted for the indicated proteins. […] Anti-proliferative effects were determined using cell titer glo analysis. […] Anti-proliferative effects were determined using alamarBlue® analysis. […] Anti-proliferative effects were determined using cell titer glo analysis. […] Dose: i.v. 1 mg/kg and p.o. 10 mg/kg.
(§2) Proliferation assays were conducted over a 48-72 hour time period (as noted). […] Cancer cell line profiling was performed over a 72 time period using Alamar Blue reagent.
CDK7 inhibitors display strong antiproflierative effects in leukemia and lymphoma cancer cells. However, a better definition of the breadth of their therapeutic potential in other cell types has not been reported. […] The rationale for examining such a large panel of human cancer cell lines is based on the fact that there is substantial genetic heterogeneity among human tumor cells, even with the same histological origins. In general, the data reveal a bimodal distribution with cell lines displaying exquisite sensitivity or apparent complete insensitivity to the compound.

[15] = tested on: patient-derived chronic lymphocytic leukemia (CLL) isolates; experiment: Cell death of patient-derived CLL isolates, Annexin V staining, 24 hour; assay type: cell-based, human; conditions: read-out: Pro-death signaling, average EC50 values
Procedure: (§3) Clinical isolates of CLL were cultured with compounds of Formula (I) or flavopiridol and assessed for cell death after a 24 hour time course by Annexin V staining. […] Anti-proliferative effect was measured using cell titer glo analysis.
PBMCs freshly isolated from peripheral blood are seeded in 24 well plates at a volume of 0.5 ml and a concentration of 2×10^6 cells/ml. Compounds and controls are added to respective wells in a total volume of 2.5 μl. Plates are mixed gently and incubated approximately 24 hours at 37° C., 5% CO2. Apoptosis was measured in all cells from each well using the Annexin V: FITC Apoptosis Detection Kit I (BD Biosciences). Normalized % death was calculated as follows: [(% Dead Drug−% Dead DMSO)/(100%−% Dead DMSO)]×100

[16] = tested on: multiple myeloma cell lines; experiment: Anti-proliferative effect in multiple myeloma cell lines with or without stromal cells, cell titer glo, 48-hour; assay type: cell-based; conditions: 48-hour treatment
Procedure: as §3, §2

Sequence of CDK8/cyclin C (P49336 whole entry): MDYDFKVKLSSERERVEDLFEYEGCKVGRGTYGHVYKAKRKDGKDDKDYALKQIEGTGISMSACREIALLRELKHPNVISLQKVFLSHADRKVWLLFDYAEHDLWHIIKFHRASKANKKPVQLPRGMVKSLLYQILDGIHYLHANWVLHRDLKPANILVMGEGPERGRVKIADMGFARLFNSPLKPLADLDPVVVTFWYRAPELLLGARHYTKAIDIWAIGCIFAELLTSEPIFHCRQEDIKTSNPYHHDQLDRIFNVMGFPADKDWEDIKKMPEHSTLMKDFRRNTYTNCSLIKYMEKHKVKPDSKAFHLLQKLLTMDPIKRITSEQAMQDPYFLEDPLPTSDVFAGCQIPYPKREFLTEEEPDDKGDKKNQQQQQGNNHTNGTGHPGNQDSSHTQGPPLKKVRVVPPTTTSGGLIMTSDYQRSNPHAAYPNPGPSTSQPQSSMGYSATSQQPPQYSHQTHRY
Sequence of CDK8/cyclin C (P24863 whole entry partner): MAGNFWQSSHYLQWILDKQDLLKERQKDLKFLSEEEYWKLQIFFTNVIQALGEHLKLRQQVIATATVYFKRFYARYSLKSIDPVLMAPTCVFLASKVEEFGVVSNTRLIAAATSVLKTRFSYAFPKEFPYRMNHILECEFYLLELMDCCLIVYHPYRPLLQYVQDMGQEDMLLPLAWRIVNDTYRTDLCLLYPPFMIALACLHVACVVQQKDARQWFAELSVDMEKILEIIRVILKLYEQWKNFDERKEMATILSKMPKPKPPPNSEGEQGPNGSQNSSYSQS

- IC50 [1]: ≥ 1000 nM
- IC50 [2]: < 100 nM
- IC50 [3]: < 500 nM
- IC50 [5]: < 500 nM
- IC50 [6]: > 5000 nM
- IC50 [7]: 500 to 5000 nM
- IC50 ([14]; panel of >300 cancer cell lines, read-out: IC50 values in 24% of cell lines): > 2500 nM
- IC50 ([14]; read-out: IC50s in 94% (132/140) of leukemia cell lines): < 200 nM
- IC50 ([14]; read-out: IC50s in all (48/48) lymphoma cell lines): < 150 nM
- IC50 ([14]; read-out: IC50 values in 70% of cell lines, panel of >300 cancer cell lines): < 200 nM
SMILES: CN(C)C/C=C/C(=O)Nc1ccc(C(=O)Nc2cccc(Nc3ncc(Cl)c(-c4c[nH]c5ccccc45)n3)c2)cc1 [Formula I-23]
- IC50 [4]: < 500 nM
- IC50 [8]: < 500 nM
- IC50 [9]: < 500 nM
- IC50 [10]: 500 to 5000 nM
- IC50 [11]: > 5000 nM
- Effect of pre-incubation with recombinant CAK complex prior to addition of ATP [12]: dramatic increase in CDK7 inhibitory activity
- Inhibition of FLAG-CDK7 WT kinase activity [13]: inhibited FLAG-CDK7 WT in a dose-dependent fashion
- EC50 [15]: < 200 nM
- Anti-proliferative activity in MM cell lines [16]: highly effective anti-proliferative activity
